In US8852657B2, “Chromones as therapeutic agents” (Unigen, Inc., priority 2007, dated 2014):

What was measured:
Assay type in all cases: in vivo, mouse
[1] = system: db/db mice; experiment: Weekly fasting triglyceride levels in db/db mice; details: after 10 weeks of treatment, P<0.05
Description: Weekly fasting triglyceride levels of male db/db mice treated with GW1929 (5 mg/kg), N-931 (375 mg/kg) and vehicle were taken for 10 weeks. Animals were provided with T2018 rodent diet ad libitum except when fasting. Animals were fasted overnight before measurements were taken. The values indicated are percent triglyceride levels of vehicle, n=8.

[2] = system: C57BL/6J mice fed high fat diet; experiment: Intraperitoneal glucose tolerance test, high-fat diet induced model (UP394/UP396); details: day 18; times 60, 90 and 120 minutes; p<0.05; GW1929 5 mg/kg, UP396 100 mg/kg intraperitoneally
Description: A high-fat diet induced animal model was developed and used for evaluation of potential therapeutic effects of chromone extracts. The C57BL/6J is a clinically relevant animal model that can be used in studies on metabolic disorders, pathophysiology of impaired glucose tolerance and for development of novel therapeutic agents (Ahren et al. (2004) Diabetes 53 (Supplement 3):S215-S219; Laakso et al. (2004) Diabetes Care 27:2253-2259; Kahn et al. (2004) Diabetes 53:3274-3285; Scheurink et al. (1998) European J Endo. 139:461-467; Yuan et al. (2002) Diabetes 51:1851-1858; Reitman et al. (2005) Endocrinology 145:3258-3264; Vlassara et al. (2005) Diabetes 54:2314-2319; Cawthome et al. (2002) Molecular and Cellular Proteomics 1:509-516). Methodology of model induction was first explained by Surwit et al. in 1988 (Diabetes, 37:1163-1167). […] Blood glucose, cholesterol, and triglyceride were monitored every week for 12 weeks as described previously. […]
An intraperitoneal glucose tolerance test was conducted using the C57BL/6J mice as described in Example 12 at a dose of 2 g/kg on day 18 of treatment with intraperitoneal administration of GW1929 (5 mg/kg), UP394 (100 mg/kg), UP396 (100 mg/kg) and vehicle. […] Blood glucose levels were measured at time 0, 30, 60, 90, and 120 minutes. […]

[3] = system: high fat diet induced C57BL/6J mice; experiment: Intraperitoneal insulin tolerance test, UP780 dose-range study; details: after 10 weeks of daily oral treatment; P≦0.05
Description: (§1) Once an induction of the disease on animals after 8 weeks of high fat diets was confirmed by monitoring of selected parameters, daily oral treatment was initiated. On each day, the test articles and the positive control GW1929 (Tocris Bioscience, Ellisville, Mo., Batch #2A/58705) were dissolved in 0.5% methylcellulose (Sigma, St. Louise Mo., Lot#116H0857) and delivered at an oral dose of 100, 200 and 400 mg/kg of UP780 (Lot # L1806QMAW-01); 400 mg/kg of Qmatrix® Aloe vera gel powder (QM400, Lot# G6319103-L3) as well as 5 mg/kg of GW1929. As GW1929 was not completely solublized in methylcellulose, it was first dissolved in DMSO (Sigma, St. Louis, Mo., Batch#064K0067). The final concentration of test compounds, including the vehicle, was then adjusted to contain 5% DMSO before drug administration. The carrier vehicle treated animals received 0.5% methylcellulose only. No detectable sign of irritation was observed after each drug or vehicle administration. […]
(§2) An intraperitoneal glucose tolerance test was conducted on day 0 (baseline), weeks 3, and 9 after onset of treatment. […] Blood glucose levels were determined at time 0 (before glucose injection), 30, 60, 90, and 120 minutes post glucose delivery. […] Blood glucose levels were determined at time 0 (before insulin injection), 30, 60, 90, and 120 minutes after insulin administration. […]

[4] = system: high fat diet induced C57BL/6J mice; experiment: Intraperitoneal glucose tolerance test, UP780 dose-range study; details: week 3 of daily oral treatment; 30, 60 and 90 minutes; UP780 200 mg/kg, GW1929 5 mg/kg
Description: as §1, §2

Structure (SMILES): CN(CCOc1ccc(C[C@H](Nc2ccccc2C(=O)c2ccccc2)C(=O)O)cc1)c1ccccn1 [GW1929, N-(2-Benzoylphenyl)-O-[2-(methyl-2-pyridinylamino)ethyl]-L-tyrosine]
- fasting triglyceride levels compared to vehicle [1]: significant reduction in triglyceride levels
- reduction of triglycerides ([1]; N931 375 mg/kg, GW1929 5 mg/kg): 43%
- glucose utilization in intraperitoneal glucose tolerance test compared to vehicle [2]: Significant glucose utilization
- significant differences in intraperitoneal insulin tolerance test vs vehicle [3]: after 1 hour insulin injection
- glucose clearance in intraperitoneal glucose tolerance test vs vehicle [4]: statistically significant glucose clearance
